Target: T1, BiGalHexNAcP (Bifidobacterium longum, UniProt A0ACD7UTG9)
T1 construct: gene BLIJ_2251
Assay: one-pot two-enzyme synthesis of disaccharide (reverse phosphorolysis)
Assay type: biochemical
Conditions: acceptor; donor galactose 1-phosphate formed in situ by BiGalK; isolated on semi-preparative scale

T1 sequence (A0ACD7UTG9 entry or part of it): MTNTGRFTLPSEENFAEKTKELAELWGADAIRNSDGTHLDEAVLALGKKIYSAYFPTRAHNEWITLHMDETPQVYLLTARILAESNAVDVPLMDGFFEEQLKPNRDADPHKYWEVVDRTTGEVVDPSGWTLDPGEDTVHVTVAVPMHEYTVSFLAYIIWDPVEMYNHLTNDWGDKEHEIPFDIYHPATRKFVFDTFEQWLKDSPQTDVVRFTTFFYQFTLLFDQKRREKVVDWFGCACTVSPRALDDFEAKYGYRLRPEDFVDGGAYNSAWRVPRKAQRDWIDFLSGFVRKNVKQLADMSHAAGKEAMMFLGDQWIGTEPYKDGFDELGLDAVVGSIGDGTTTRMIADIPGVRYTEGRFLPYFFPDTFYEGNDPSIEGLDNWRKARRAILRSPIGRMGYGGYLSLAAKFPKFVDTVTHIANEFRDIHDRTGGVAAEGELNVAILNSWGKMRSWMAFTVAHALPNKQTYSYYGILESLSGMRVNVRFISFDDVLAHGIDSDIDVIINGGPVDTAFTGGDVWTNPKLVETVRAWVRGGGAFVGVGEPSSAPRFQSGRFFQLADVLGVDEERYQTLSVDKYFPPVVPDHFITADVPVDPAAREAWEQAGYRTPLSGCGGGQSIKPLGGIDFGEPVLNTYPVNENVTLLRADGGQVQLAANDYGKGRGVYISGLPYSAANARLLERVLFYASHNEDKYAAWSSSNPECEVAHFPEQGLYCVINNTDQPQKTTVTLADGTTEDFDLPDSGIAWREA

CC(=O)N[C@H]1[C@H](OCCCN=[N+]=[N-])O[C@H](CO)[C@@H](O)[C@@H]1O[C@@H]1O[C@H](CO)[C@H](O)[C@H](O)[C@H]1O [compound 15]
one-pot two-enzyme synthesis of disaccharide (reverse phosphorolysis): Lacto-N-biose and fluorinated derivatives were efficiently synthesized on semi-preparative scale

From PMC8179109, “Introducing affinity and selectivity into galectin-targeting nanoparticles with fluorinated glycan ligands” (Chemical Science, 2020)
